According to US5200424A, “Use of 10-membered ring lactones as lipid regulators” (priority 1990, dated 1993):
Like-named read-outs stand apart in the source and are kept apart here.

How the values were obtained:
[1] = tested on: cholesterol biosynthesis in HEP-G2 cells; experiment: Cholesterol biosynthesis inhibition in HEP-G2 liver cell cultures (14C-acetate); type: cell-based; conditions: Homo sapiens, 3 h with (14C)acetate
Experimental: (§1) Monolayers of HEP-G2 cells in liproprotein-free nutrient medium are preincubated with appropriate concentrations of the substances of the formula I to be tested for one hour. After addition of the […] biosynthesis precursor sodium (^14 C)acetate the incubation is continued for 3 hours. After this a portion of the cells is subjected to alkaline hydrolysis after addition of an internal standard of ^3 H-cholesterol. The lipids from the hydrolyzed cells are extracted with a chloroform/methanol mixture. This lipid mixture is, after addition of carrier cholesterol, fractionated by preparative thin-layer chromatography, the cholesterol band is stained and then isolated, and the amount of ^14 C-cholesterol formed from the ^14 C-precursor is determined by scintigraphy. Cellular protein was determined in an aliquot of the cells so that the amount of ^14 C-cholesterol formed from ^14 C-precursor per mg of cellular protein per unit time can be calculated. The control is used for comparison for the inhibitory effect of an added test product so that it is possible to state directly the inhibition of the cholesterol biosynthesis at a particular molar concentration of the test product in the medium. The integrity of the cell culture and the absence of cell damage owing to exposure to the product is assessed morphologically (light microscopy) and measured biochemically by determining the lactic dehydrogenase release into the incubation medium on aliquots of the cell culture.

[2] = tested on: HEP-G2 cells; experiment: Integrity of the cell culture / cell damage (light microscopy, lactic dehydrogenase release); type: cell-based
Experimental: as §1, with “The control is used for comparison for the inhibitory effect of an added test product so that it is possible to state directly the inhibition of the cholesterol biosynthesis at a particular molar concentration of the test product in the medium.” left out

[3] = tested on: serum lipoproteins; experiment: Lipoprotein fractionation by ultracentrifugation in rats (serum cholesterol, protein, triglycerides; hypolipemic effect); type: in vivo, Rat, male, strain: HOE WISKf (SPF 71)
Experimental: Male rats with an initial weight above 180 g received the test product of the formula I in polyethylene glycol 400 by gavage once a day (in the morning) (0.5 ml/100 g of body weight); the relevant control group received only the same amount of solvent. The last (7th) administration took place 24 hours before blood sampling and sacrifice. There was free access to feed and water during the test. Feed was withdrawn 24 hours before the retroorbital blood sampling, which took place under light ether anesthesia before and after the treatment period (that is to say on the 1st and 8th day). Serum glutamic-oxalate transaminase (SGOT), serum glutamic-pyruvic transaminase (SGPT), alkaline phosphatase (aP), bilirubin and creatinine were determined in the serum of each individual animal. […] Immediately after the blood sampling the animals were sacrificed by distortion of the spinal column. The livers were removed, and the relative liver weight was determined. In addition, the body weight gain and the feed consumption were investigated. The statistical analysis was carried out by Student's t test.
To analyze the serum lipoproteins, after the treatment period the serum of all rats in a group was pooled.

[4] = Body weight, relative liver weight and feed consumption in rats; type: in vivo, Rat, male, strain: HOE WISKf (SPF 71); conditions: 15 mg/kg/day, male rat, after treatment
Experimental: (§2) Male rats with an initial weight above 180 g received the test product of the formula I in polyethylene glycol 400 by gavage once a day (in the morning) (0.5 ml/100 g of body weight); the relevant control group received only the same amount of solvent. The last (7th) administration took place 24 hours before blood sampling and sacrifice. There was free access to feed and water during the test. Feed was withdrawn 24 hours before the retroorbital blood sampling, which took place under light ether anesthesia before and after the treatment period (that is to say on the 1st and 8th day). Serum glutamic-oxalate transaminase (SGOT), serum glutamic-pyruvic transaminase (SGPT), alkaline phosphatase (aP), bilirubin and creatinine were determined in the serum of each individual animal. The total glycerol was measured from the pooled serum of all animals in a group as measure of the triglycerides (Eggstein, M. Kreutz, F. H.: Klin. Wschr. 44, 262 and 267 (1966); Wahlefeld, A. W., in: H. O. Bergmeier: Methoden der enzymatischen Analyse (Methods of enzymatic analysis), 2nd Edition, Volume II, Verlag Chemie 1974, Page 1878). Immediately after the blood sampling the animals were sacrificed by distortion of the spinal column. The livers were removed, and the relative liver weight was determined. In addition, the body weight gain and the feed consumption were investigated. The statistical analysis was carried out by Student's t test.

[5] = Serum enzymes, bilirubin and creatinine in rats; type: in vivo, Rat, male, strain: HOE WISKf (SPF 71)
Experimental: as §2

[6] = 15 mg/kg/day, male rat, by gavage, 7 administrations
[7] = 15 mg/kg/day, male rat, after treatment (8th day)
[8] = 15 mg/kg/day, male rat, before treatment (1st day)

Compound: C[C@H](CCCC(C)(C)O)[C@H]1CC[C@H]2[C@@H]3CC=C4C[C@@H](O)CC[C@]4(C)[C@H]3CC[C@]12C [25-hydroxycholesterol]
- IC50 ([1]; HepG2, standard products, 1 h preincubation, read-out: IC50, inhibition of cholesterol biosynthesis): 230 nM

Compound: CC1CC(O)C=CC(O)C(O)CC(=O)O1 (centres unmarked)
- IC50 ([1]; HepG2, 1 h preincubation, read-out: inhibits biosynthesis by 50% at): 100 nM
- cell culture damage [2]: not damaged
- % Change compared with control, Protein LDL [3, 6]: -20%
- % Change compared with control, Protein VLDL [3, 6]: -12%
- % Change compared with control, Total cholesterol HDL [3, 6]: -13%
- % Change compared with control, Total cholesterol LDL [3, 6]: -31%
- % Change compared with control, Total cholesterol VLDL [3, 6]: -40%
- % Change compared with control, Triglycerides VLDL [3, 6]: -22%
- Cholesterol HDL/LDL Based on control ([3]; 15 mg/kg/day, male rat, by gavage, control 1.00): 1.26
- Cholesterol HDL/LDL ([3]; 15 mg/kg/day, male rat, by gavage, control 3.75): 4.74
- reduction in the triglycerides (mainly transported in the VLDL) ([3]; rat): distinct reduction
- vasoprotective index HDL-cholesterol: LDL-cholesterol ([3]; rat): significant increase
- reduction in the atherogenic serum lipoproteins LDL and VLDL (cholesterol content) ([3]; rat, at one seventh of the dose of clofibrate, compared with clofibrate): equally great reduction
- reduction in the HDL fraction ([3]; rat, compared with clofibrate): only half as large
- vasoprotective index HDL-cholesterol: LDL-cholesterol compared with clofibrate ([3]; rat, compared with clofibrate): distinctly higher than with clofibrate
- % Change from control, Body weight after [4]: -3%
- % Change from control, rel. feed consumption after [4]: -1%
- Bilirubin, Final, mean [5, 7]: 2.0 µmol/L
- Creatinine, Final, mean [5, 7]: 64 µmol/L
- Serum enzymes SGOT, Final, mean [5, 7]: 56 U/L
- Serum enzymes SGPT, Final, mean [5, 7]: 25 U/L
- Serum enzymes aP, Final, mean [5, 7]: 247 U/L
- Bilirubin, Initial, mean [5, 8]: 2.8 µmol/L
- Creatinine, Initial, mean [5, 8]: 67 µmol/L
- Serum enzymes SGOT, Initial, mean [5, 8]: 41 U/L
- Serum enzymes SGPT, Initial, mean [5, 8]: 29 U/L
- Serum enzymes aP, Initial, mean [5, 8]: 359 U/L
- tolerability parameters: SGOT, SGPT, aP, serum bilirubin and serum creatinine ([5]; rat): not pathologically changed
